Patent US10525220B2, “Droplet delivery device for delivery of fluids to the pulmonary system and methods of use” (PNEUMA RESPIRATORY, INC., priority 2016, dated 2020)
Where “and” joins values, the source holds several entries; their conditions need not be identical. Equal values may be shown once.

Key:
Type in all cases: physicochemical
[1] = Anderson Cascade Impactor testing of Albuterol sulfate aerosol from droplet delivery device (Example B)
Description: The study was designed to evaluate device performance of a single Pneuma™ inhaler. A series of three (3) individual tests were conducted with a new disposable drug cartridge for each test. The testing platform utilizes an eight-stage nonviable Anderson Cascade Impactor (Thermo Fisher Scientific; Waltham, Mass.) equipped with a calibrated AALBORG model GFM47 mass flow meter (AALBORG Instruments and Controls; Orangeburg, N.Y.) for flow rate measurement.
At the conclusion of each test, the mouthpiece was rinsed with mobile phase and collected for HPLC analysis to determine the mass fraction of non-respirable aerosolized drug captured in the mouthpiece via inertial filtering. Following each test, impactor stage samples were extracted and recovered in solvent and analyzed for the active pharmaceutical ingredient (API) using a Dionex Ultimate 3000 nano-HPLC with UV detection (Thermo Scientific, Sunnyvale, Calif.).
The cascade impactor testing procedure involved fitting the mouthpiece into the Impactor USP throat with a mouthpiece connection seal. The vacuum pump supplying sample air flow to the cascade impactor was turned on and the pump control valves adjusted to supply 28.3 L/min total flow through the impactor and inhaler body during aerosol tests.
The device was connected to the impactor USB throat, turned on, and actuated ten (10) times for each test. At the conclusion of the test period, the device, impactor, and dilution air sources were turned off. The i mouthpiece was rinsed in order to extract drug, and all stages of the cascade impactor were rinsed with a quantity of appropriate solvent (HPLC mobile phase). Extracted samples were placed in labeled and sterile HPLC vials, capped, and analyzed for drug content via HPLC with UV detection. The mouthpiece was extracted of residual drug and analyzed for drug content via HPLC to measure mouthpiece drug deposition in relation to the total collected on the impactor stages.
All system flow rates and impactor sample flows were monitored throughout each test period. Following each test, the impactor slides were placed in labeled sterile Petri dishes, and impactor stages were extracted of drug using 2 ml of mobile phase applied with a calibrated micropipette. All extracted samples from the mouthpiece and impactor were placed in labeled sterile amber HPLC sample vials, and stored refrigerated at approximately 2° C. until HPLC analysis.
Impactor collection stages for all tests were rinsed with DI water and ethanol, and air dried prior to each inhaler test trial to avoid contamination. A new inhaler drug cartridge was used for each of the three individual tests.
All drug content analysis was performed using a Dionex Ultimate 3000 nano-HPLC equipped with a Dionex UVD-3000 multi-wavelength UVNIS Detector using a micro flow cell (75 um×10 mm path length, total analytical volume 44.2 nl). […] Total HPLC run time was 6 minutes per sample with approximately 5 minutes flush between each sample. Sample injection was performed with a 1 μl sample loop in full loop injection mode.
Buffer formulation contains reverseosmosis filtered deionized water with 1.13 gr of sodium 1-hexanesulfonate (Alfa Aesar) in 1200 ml of water, with 2 ml glacial acetic acid (Acros Organics) added. The mobile phase solution was mixed and filtered through a 0.45 um filter membrane. The final mobile phase is a 60:40 dilution of Buffer:MEOH.
Mean and standard deviation were calculated for all triplicate trial sets for each component of: inhaler drug fill, total delivered dose, course particle dose, course particle fraction, respirable particle dose, respirable particle fraction, fine particle dose, fine particle fraction, aerosol MMAD and GSD. The number of trials provided for 95% confidence levels for all data sets.

[2] = Size exclusion chromatography stability study after aerosol generation with test device
Description: Alternately, to determine the stability of active agent after droplet generation, the generated stream of droplets including the active agent may be collected and […] may be employed to monitor for any changes in large molecule aggregation and protein fragment content. Soluble protein aggregates and protein fragment content may be calculated by comparing respective peak area under the SEC-HPLC curve of dispensed protein solutions with controls (solutions remaining in the device reservoir). Drug solutions for testing include Enbrel, (ENBREL® single-use prefilled syringes in 25 mg (0.51 mL of a 50 mg/mL solution of etanercept), and insulin, (Humalog, 200 units/ml, 3 ml […] is performed with a YarraTM 3 um SEC-2000 LC column 300×7.8 mm, SecurityGuard cartridge kit and SecurityGuard cartridges GFC-2000, 4×3 mm ID. Fifty microliters of Enbrel from the syringe (ENBREL® single-use prefilled syringes in 25 mg/0.51 mL of a 50 mg/mL solution of etanercept) is diluted (4:1) (4 parts, 200 mcl of the mobile phase buffer solution to 1 part, 50 mcl Enbrel from syringe). Fifty microliter of the diluted Enbrel is injected and separation was performed at a flow rate of 1.0 ml/min. The mobile phase buffer system included a PHOS. BUFF. SALINE. […] UV detection is performed at 280 nm. […] Aerosol collection and SEC is performed in a similar fashion as for the Enbrel analysis and aerosol collection. […] Fifty microliters of the collected aerosol spray is injected onto the SEC column for analysis, while 50 mcl of the […] insulin solution is injected onto the SEC column for control samples.

[3] = Gravimetric analysis of delivered dose per actuation; settings: for solution mass per dose (actuation), average of five doses: ampule weighed before and after dosing
Description: Gravimetric analysis was performed by weighing the Enbrel solution filled ampule before and after dosing. The average of five doses (actuations) were analyzed with an average of 4.25 mg+/−0.15 mg. The total delivered dose of Enbrel per actuation is therefore […] per actuation.
Gravimetric analysis was performed by weighing the Insulin solution filled ampule before and after dosing. The average of five doses (actuations) were analyzed with an average of 5.01 mg+/−0.53 mg. The total delivered dose of Insulin per actuation is therefore 34.8 mcg per actuation.

[4] = Gel electrophoresis stability of active agent after droplet generation
Description: To determine the stability of active agent after droplet generation, the generated stream of droplets including the active agent is collected and the molecular weight of the active agent is verified using gel electrophoresis.

[5] = Albuterol 0.5%, 28.3 lpm, 10 actuations
[6] = Albuterol 0.5%, 28.3 lpm, N = 30
[7] = Albuterol 0.5%, Anderson Cascade, 28.3 lpm, 10 actuations
[8] = Pre-separator, cut diam. 10 μm, Albuterol 0.5%, 28.3 lpm, 10 actuations
[9] = Enbrel aerosolized, average of S1 and S2

## Albuterol sulfate
[1]; [5]
  Coarse Particles (>4.7 um): 203.7 µg
  Coarse Particules Fraction (>4.7 um): 22.7%
  Fine Particles (<0.4 um): 31.0 µg
  Fine Particule Fraction (<0.4 um): 3.5%
  Mouthpiece Losses: 12.2%
  Respirable Dose (0.4-4.7 um): 621.9 µg
  Respirable Fraction (0.4-4.7 um): 69.3%
[1]; [6]
  Geometric StdDev (GSD): 1.96
  MMAD: 1.93 um
[1]; [7]
  Mouthpiece Losses: 109.4 µg
  droplets of an average diameter of less than about 5 μm: over 75%
  droplets with an average diameter of less than about 4 μm: over 70%
[1]; FILTER stage
  Cum. % <: 0.00%
  Cum. % >: 100.00%
[1]; [8]
  Cum. % <: 100.00%
  Cum. % >: 0.00%
[1]; stage 0, cut diam. 9 μm
  Cum. % <: 88.95%
[1]; stage 1, cut diam. 5.8 μm
  Cum. % <: 76.22%
  Cum. % >: 23.78%
[1]; stage 2, cut diam. 4.7 μm
  Cum. % <: 71.05%
  Cum. % >: 28.95%
[1]; stage 3, cut diam. 3.3 μm
  Cum. % <: 64.29%
  Cum. % >: 35.71%
[1]; stage 4, cut diam. 2.1 μm
  Cum. % <: 52.89%
  Cum. % >: 47.11%
[1]; stage 5, cut diam. 1.1 μm
  Cum. % <: 21.05%
  Cum. % >: 78.95%
[1]; stage 6, cut diam. 0.7 μm
  Cum. % <: 8.47%
  Cum. % >: 91.53%
[1]; stage 7, cut diam. 0.4 μm
  Cum. % >: 96.38%

## Insulin: insulin, Humalog, 200 units/ml, 3 ml kwikpens
[2]; Insulin 200 U/ml, aerosolized
  Peak Area %, Peak 1: 27.881% and 28.721%
  Peak Area %, Peak 2: 69.780% and 67.807%
  Peak Area %, Peak 3: 2.184% and 2.797%
[2]; Insulin 200 U/ml, control
  Peak Area %, Peak 2: 69.630%
  Peak Area %, Peak 3: 0%
[2]; Insulin aerosolized, average of S1 and S2
  Peak 3, Avg.: 2.4905
[2]; Insulin from Kwikpen 200 U/ml, control
  Peak Area %, Peak 1: 29.926%
[2]; Insulin, test device
  ejected dose forming a fragment which elutes at ~25 minutes: 2.5%
  ejected dose structurally unchanged: 97.5%
[3]
  total delivered dose per actuation: 34.8 mcg per actuation
  solution mass per dose (actuation), average of five doses: 5.01 mg

## adalimumab
[4]
  change in electrophoretic mobility (molecular weight) of post-aerosol active agent vs control: negligible change

## etanercept [Enbrel]
[2]; Enbrel 10 mg/ml, aerosolized
  Peak Area %, Peak 2: 90.789% and 92.112%
  Peak Area %, Peak 3: 0.424% and 0.361%
  Peak Area %, Peak 4: 0.357% and 0.352%
  Peak Area %, Peak 5: 5.130% and 3.428% and 5.123%
[2]; Enbrel 10 mg/ml, aerosolized with test device
  Peak Area %, Peak 1: 2.796% and 3.476%
[2]; Enbrel 10 mg/ml, control
  Peak Area %, Peak 2: 96.676% and 95.909%
  Peak Area %, Peak 3: 0.373% and 0.351%
  Peak Area %, Peak 4: 0%
  Peak Area %, Peak 5: 0%
[2]; [9]
  Peak 4, Avg.: 0.3545
  Peak 5, Avg.: 4.2755
[2]; Enbrel diluted 4:1 (10 mg/ml), control
  Peak Area %, Peak 1: 2.428% and 3.041%
[2]; Enbrel, test device
  dose forming molecular fragments with elution times of 13 and 25 minutes: 4.6%
  structurally unchanged after delivering an aerosol dose: 95.4%
[4]
  change in electrophoretic mobility (molecular weight) of post-aerosol active agent vs control: negligible change
[3]
  total delivered dose per actuation: 42.5 mcg per actuation
  solution mass per dose (actuation), average of five doses: 4.25 mg
